Our source for the ΔTm and IC50 values is ChEMBL document CHEMBL1128620, “Relationship between cytotoxicity and DNA-binding affinity of amidine derivatives of tetrahydroquino[4,3-b][1]benzazepines and tetrahydrobenzo[k]naphthyridines” (Bioorg Med Chem Lett, 1995).

In one assay the test system is Nucleic Acid. The experiment in a line: DNA binding affinity was evaluated as thermal denaturation using calf thymus DNA. In kind it is nucleic-acid assay. As to conditions: Bos taurus.
The subject of a further assay is CH1. In words: In vitro cytotoxicity against CH1 ovarian carcinoma cells. To be noted: Homo sapiens. In kind it is functional, cell-based.
In a further assay the test system is SK-OV-3. The experiment in a line: In vitro cytotoxicity against SKOV-3 ovarian carcinoma cells. To be noted: Homo sapiens. It is filed as functional, cell-based.

Structures are written as SMILES.

With `CC1C[C@]2(C)C(NCCCCN)=Nc3ccccc3[C@@H]2N(C)c2ccccc21` (some centres undefined), in the assay with Nucleic Acid, the ΔTm came out at 0.58 °C. Moreover, the IC50 in the assay on CH1 and with SK-OV-3 was 1.6 µM in each case.

Consider `CNc1cccc2c1C(C)C[C@]1(C)C(NCCCCN)=Nc3ccccc3[C@H]21` (some centres undefined), for which the ΔTm with Nucleic Acid was determined as 1.14 °C. Moreover, the IC50 came to 3.5 µM with CH1 and 2.25 µM in the assay with SK-OV-3.

Consider `CNc1cccc2c1C(C)C[C@]1(C)C(NCCCO)=Nc3ccccc3[C@H]21` (some centres undefined), for which, in the assay on Nucleic Acid, the ΔTm is 0.35 °C. The values for the IC50 in the assay with CH1 and in the assay on SK-OV-3 were 6 µM and 12.5 µM, respectively.

On to `CC1C[C@]2(C)C(NCCCN)=Nc3ccccc3[C@@H]2N(C)c2ccccc21` (some centres undefined), for which the ΔTm in the assay on Nucleic Acid was determined as 0.46 °C. Moreover, the values for the IC50 with CH1 and in the assay on SK-OV-3 were 0.5 µM and 3.3 µM, respectively.

Regarding `CCCNC1=Nc2ccccc2[C@@H]2N(C)c3ccccc3C(C)C[C@]12C` (some centres undefined), the ΔTm in the assay on Nucleic Acid came to 0.17 °C. The 50% inhibitory concentration (IC50) in the assay with CH1 is 10.5 µM; with SK-OV-3, 1.4 µM.

With `CC1C[C@]2(C)C(NCCCO)=Nc3ccccc3[C@@H]2N(C)c2ccccc21` (some centres undefined), in the assay on Nucleic Acid, the thermal shift (ΔTm) stood at 0.24 °C. The IC50 in the assay with CH1 turned out to be 14 µM; with SK-OV-3, 32.5 µM.

With `CNc1cccc2c1C(C)C[C@]1(C)C(NCCCN)=Nc3ccccc3[C@H]21` (some centres undefined), the ΔTm with Nucleic Acid was 0.88 °C. Further, the figures for the IC50 with CH1 and in the assay with SK-OV-3 were 2 µM and 3.1 µM, respectively.

Turning to `CCCNC1=Nc2ccccc2[C@@H]2c3cccc(NC)c3C(C)C[C@]12C` (some centres undefined), the ΔTm in the assay with Nucleic Acid turned out to be 0.29 °C. Also, the IC50 with CH1 amounted to 9 µM; with SK-OV-3, 12 µM.

What is called ΔTm is the change in melting temperature against a reference sample. What is called IC50 is the concentration at which inhibition is half-maximal. A higher IC50 goes with lower potency.
